Key:
[1] = Stability of product kept in capped bottle in the refrigerator (color); format: physicochemical; settings: six months
Experimental: (§1) 17.9 g of halide-free glucosamine base was mixed with 150 cc of purified water in a reaction vessel. After a clear solution was obtained, 16 g of α-hydroxy octanoic acid were slowly added, with stirring, to the glucosamine base solution. It was noted that the reaction was slightly exothermic since the temperature rose to 35° C. The reaction mixture was filtered and the water was removed by freeze-drying at a pressure of about 200 milliTorre and a temperature of about −45° C. 33 g of an off-white crystalline powder were obtained. The product was placed in a capped bottle that was placed in the refrigerator. […] A sample of the product was placed in an open dish exposed to the air at ambient temperature.

[2] = Stability of sample in open dish exposed to the air at ambient temperature (color change); format: physicochemical
Experimental: as §1
Example 1 was repeated using 300 cc of purified water to which 16.5 g of polyethylene glycol homopolymer had been added. 49 g (97.2% yield) of the white salt product were obtained. A sample of this product was placed in an open dish exposed to the air at ambient temperature.
A sample of the Example 3 product was placed in a dish exposed to the air at ambient temperature. […] A sample of the Example 4 product was placed in a dish exposed to the air at ambient temperature.

| Structure (SMILES) | color of product kept in the refrigerator [1] | color of sample after exposure to the air at ambient temperature ([2]; open dish, 3 days) | color of sample after exposure to the air at ambient temperature ([2]; dish, 1 day) |
| --- | --- | --- | --- |
| CCCCCCC(O)C(=O)O.NC1C(O)OC(CO)C(O)C1O (stereo not drawn) [Example 1] | remained off-white in color | developed a yellow color | – |
| N[C@H]1C(O)O[C@H](CO)[C@@H](O)[C@@H]1O.O=C(O)CC(O)(CC(=O)O)C(=O)O [Example 3] | – | – | developed a yellow-orange color |
